# Patent publication US11951088B2, “Fatty acid analogs and their use in the treatment of conditions related to metabolic syndrome” (Epitracker, Inc., priority 2017, dated 2024)
# Where two headings read alike, the source gives them in different places.
# Tests used:
# human PPAR-δ = molecular target: T1, human PPAR-δ (Homo sapiens, UniProt Q03181); experiment: PathHunter NHR Protein Interaction assay, PPAR-δ agonist activity (CHO cells)
# T1 sequence (Q03181 1-441): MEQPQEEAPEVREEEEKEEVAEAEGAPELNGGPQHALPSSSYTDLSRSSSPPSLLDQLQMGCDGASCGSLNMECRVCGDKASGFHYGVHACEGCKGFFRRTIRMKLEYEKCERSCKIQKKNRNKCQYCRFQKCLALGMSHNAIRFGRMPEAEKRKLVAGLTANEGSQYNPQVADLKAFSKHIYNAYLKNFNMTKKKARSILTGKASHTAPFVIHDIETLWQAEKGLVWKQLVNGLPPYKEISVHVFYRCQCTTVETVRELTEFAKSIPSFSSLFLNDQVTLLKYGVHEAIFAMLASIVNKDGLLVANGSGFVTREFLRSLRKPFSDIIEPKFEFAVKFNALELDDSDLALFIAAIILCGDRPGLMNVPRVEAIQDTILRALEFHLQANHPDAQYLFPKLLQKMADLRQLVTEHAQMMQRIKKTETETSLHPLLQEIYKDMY
# Method: (§1) PPAR-α, PPAR-δ, and PPAR-γ agonist activities were measured using PathHunter Nuclear Hormone Receptor (NHR) Protein Interaction (Pro) assays (DiscoverX, Freemont, California). Briefly, Chinese hamster ovary (CHO) cell lines were used to monitor the activation of PPAR-α, PPAR-δ, and PPAR-γ in a homogenous, non-imaging assay format using Enzyme Fragment Complementation (EFC). The NHR Pro assay was based on detection of protein-protein interactions between activated, full length PPAR-α, PPAR-δ, and PPAR-γ proteins and a nuclear fusion protein containing Steroid Receptor Co-activator Peptide (SRCP) domains with one or more canonical LXXLL interaction motifs. PPAR-α, PPAR-δ, and PPAR-γ were tagged with the ProLink component of the EFC assay system, and the SRCP domain was fused to the enzyme acceptor component (EA) expressed in the nucleus. When bound by ligand, PPAR-α, PPAR-δ, or PPAR-γ migrated to the nucleus and recruited the SRCP domain, whereby complementation occurred, generating a unit of active β-Galactosidase (β-Gal) and production of chemiluminescent signal. […] Percentage activity was calculated using the following formula: % Activity=100%×(mean RLU of test sample−mean RLU of vehicle control)/(mean MAX control ligand−mean RLU of vehicle control).
# human PPAR-α = molecular target: T2, human PPAR-α (Homo sapiens, UniProt Q07869); experiment: PathHunter NHR Protein Interaction assay, PPAR-α agonist activity (CHO cells)
# T2 sequence (Q07869 1-468): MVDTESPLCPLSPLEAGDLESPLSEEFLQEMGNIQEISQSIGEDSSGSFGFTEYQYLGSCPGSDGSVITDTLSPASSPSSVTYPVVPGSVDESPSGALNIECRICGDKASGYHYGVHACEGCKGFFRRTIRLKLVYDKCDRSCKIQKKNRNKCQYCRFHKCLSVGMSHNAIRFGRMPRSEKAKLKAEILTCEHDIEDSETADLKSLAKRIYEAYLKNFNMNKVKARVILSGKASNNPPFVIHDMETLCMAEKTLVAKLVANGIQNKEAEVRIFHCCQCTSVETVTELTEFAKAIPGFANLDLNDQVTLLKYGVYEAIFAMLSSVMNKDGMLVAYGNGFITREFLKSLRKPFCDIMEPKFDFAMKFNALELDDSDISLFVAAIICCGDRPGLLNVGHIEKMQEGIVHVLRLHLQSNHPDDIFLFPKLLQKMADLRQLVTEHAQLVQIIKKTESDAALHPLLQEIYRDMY
# Method: as §1
# human PPAR-γ = molecular target: T3, human PPAR-γ (Homo sapiens, UniProt P37231); experiment: PathHunter NHR Protein Interaction assay, PPAR-γ agonist activity (CHO cells)
# T3 sequence (P37231 1-505): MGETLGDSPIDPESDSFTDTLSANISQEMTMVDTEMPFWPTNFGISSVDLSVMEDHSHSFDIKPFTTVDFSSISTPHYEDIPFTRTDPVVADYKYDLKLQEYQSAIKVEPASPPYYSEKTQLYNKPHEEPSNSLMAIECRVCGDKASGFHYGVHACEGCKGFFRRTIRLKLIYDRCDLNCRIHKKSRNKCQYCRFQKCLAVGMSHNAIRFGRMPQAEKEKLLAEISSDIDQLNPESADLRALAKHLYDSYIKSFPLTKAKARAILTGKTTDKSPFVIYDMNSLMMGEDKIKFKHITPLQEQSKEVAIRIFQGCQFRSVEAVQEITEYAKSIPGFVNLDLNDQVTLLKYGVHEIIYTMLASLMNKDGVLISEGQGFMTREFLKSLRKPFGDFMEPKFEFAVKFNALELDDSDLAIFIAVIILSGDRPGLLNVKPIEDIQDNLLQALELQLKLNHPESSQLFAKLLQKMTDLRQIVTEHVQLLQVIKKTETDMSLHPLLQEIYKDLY
# Method: as §1
# [1] = test system: 12 human primary cell-based systems; experiment: BioMAP Diversity Plus panel, biomarker readouts; conditions: compared to C15:0-treated systems and non-treated controls; 740 nm and 2.2, 6.7 and 20 μM
# Excerpt: This study examined and compared activities of a saturated free fatty acid (C15:0) and three substituents (2-methyl-, 2,2-dimethyl-, and 1-tetrazole-C15:0) across 12 human primary cell-based systems as part of DiscoverX's BioMAP Diversity Plus program. These systems are designed to model complex human tissue and disease biology of the vasculature, skin, lung, and inflammatory tissues. Quantitative measurements of biomarker activities across this broad panel, along with comparative analysis of biological activities of known bioactive agents were used to predict and compare the efficacy and function of the four compounds.
# BioMAP panels consist of human primary cell-based systems designed to model different aspects of the human body in an in vitro format. The 12 systems in the Diversity PLUS panel allow test agent characterization in an unbiased way across a broad set of systems modeling various human disease states. BioMAP systems are constructed with one or more primary cell types from healthy human donors, with stimuli (such as cytokines or growth factors) added to capture relevant signaling networks that naturally occur in human tissue or pathological conditions. Vascular biology is modeled in both a Th1 (3C system) and a Th2 (4H system) inflammatory environment, as well as in a Th1 inflammatory state specific to arterial smooth muscle cells (CASM3C system). Additional systems recapitulate aspects of the systemic immune response including monocyte-driven Th1 inflammation (LPS system) or T cell stimulation (SAg system), chronic Th1 inflammation driven by macrophage activation (lMphg system) and the T cell-dependent activation of B cells that occurs in germinal centers (BT system). The BE3C system (Th1) and the BF4T system (Th2) represent airway inflammation of the lung, while the MyoF system models myofibroblast-lung tissue remodeling. Lastly, skin biology is addressed in the KF3CT system modeling Th1 cutaneous inflammation and the HDF3CGF system modeling wound healing.
# Each test agent generates a signature BioMAP profile that is created from the changes in protein biomarker readouts within individual system environments. Biomarker readouts (7-17 per system) are selected for therapeutic and biological relevance, are predictive for disease outcomes or specific drug effects and are validated using agents with known mechanism of action (MoA). Each readout is measured quantitatively by immune-based methods that detect protein (e.g., ELISA) or functional assays that measure proliferation and viability. BioMAP readouts are diverse and include cell surface receptors, cytokines, chemokines, matrix molecules and enzymes.
# [2] = test system: C57BL/6J mice fed a high fat diet; experiment: diet-induced obese mice treated daily by gastric gavage for 12 weeks; assay type: in vivo; conditions: for Cholesterol / Glucose / IL-6 / Insulin / LDL-C / MCP-1 / TNF-α: Day 84, 6 h fasted
# Method: Forty C57BL/6J mice were fed a high fat diet (HFD) (D12492, 60% kcals fat) for 8 weeks. Study mice were then divided into the following four groups of ten: vehicle controls, low dose C17:0-treated (5 mg/kg body weight), high-dose C17:0-treated (50 mg/kg body weight), and low-dose C15:0-treated (5 mg/kg body weight).
# Table 1 provides comparisons of cardiometabolic effects in diet-induced obese mice treated daily with oral pentadecanoic acid (5 mg/kg BW), heptadecanoic acid (5 and 50 mg/kg BW) for 12 weeks compared to vehicle controls. “Results” values are based on 6 h fasted samples.
# [3] = 24-hour plasma pharmacokinetics after single oral dose in rats; assay type: in vivo; conditions: for bioavailability: po
# [4] = Half Maximal Effective Concentration (EC50), PPAR-α, Table 5
# [5] = CHO, read-out: Maximum Response
structure (smiles),measurement,setting,value
"CCCCCCCCCCCCCC(CC)C(=O)O (stereo not drawn) [2-ethyl-C15:0, 2-ethylpentadecanoic acid]",EC50,human PPAR-δ,0.3 µM
same,EC50 % improvement over FFA form,"human PPAR-δ; PPAR-δ, compared to free fatty acid form",89%
same,EC50,human PPAR-α; [4],1.2 µM
same,EC50 % improvement over FFA form,"human PPAR-α; PPAR-α, compared to free fatty acid form",90%
same,EC50,human PPAR-γ,51 µM
same,EC50 % improvement over FFA form,"human PPAR-γ; PPAR-γ, compared to free fatty acid form",>49%
same,PPAR-γ agonist activity (in words),human PPAR-γ; compared to the free fatty acid form,acquired PPAR-γ agonist activity
"CCCCCCCCCCCCCC(C)(C)C(=O)O [2,2-dimethyl-C15:0, 2,2-dimethylpentadecanoic acid]",CD38,[1],lower
same,CD99,[1],lower
same,ICAM-1,[1],lower
same,IL-1α,[1],lower
same,IL-8,[1],lower
same,IP-10,[1],lower
same,IP-18,[1],lower
same,MCP-1,[1],lower
same,MIG,[1],lower
same,MMP-1,[1],lower
same,MMP-3,[1],lower
same,MMP-9,[1],lower
same,PAI-1,[1],lower
same,VCAM-1,[1],lower
same,eotaxin-3,[1],lower
same,keratin 8/18,[1],lower
same,tissue factor,[1],lower
"CCCCCCCCCCCCCCCC(=O)O [C16:0, palmitic acid]",Emax,human PPAR-α; [5],56.1%
same,EC50,"human PPAR-α; EC50, PPAR-alpha, Table 4",27.3 µM
same,EC50,"human PPAR-α; EC50, PPAR-alpha, Table 7",27.3 µM
same,EC50,human PPAR-α; [4],27.3 µM
same,EC50,human PPAR-γ,> 100 µM
same,Emax,human PPAR-γ; [5],4.68%
same,EC50,"human PPAR-γ; PPAR-gamma, Table 7",> 100 µM
same,EC50,"human PPAR-γ; read-out: Half Maximal Effective Concentration (EC50), PPAR-γ, Table 5",> 100 µM
"CCCCCCCCCCCCCC(=O)O [C14:0, myristic acid]",EC50,"human PPAR-α; EC50, PPAR-alpha, Table 4",8.35 µM
same,EC50,human PPAR-α; [4],8.4 µM
same,EC50,human PPAR-γ,> 100 µM
"CCCCCCCCCCCCCCCCC(=O)O [C17:0, heptadecanoic acid]",metabolic syndrome compared to vehicle controls (in words),"[2]; 12 weeks daily oral, C15:0 5 mg/kg, C17:0 5 and 50 mg/kg",trended toward attenuated metabolic syndrome
same,Cholesterol,[2]; 5 mg/kg daily oral,197 ± 31 mg/dL
same,Glucose,[2]; 5 mg/kg daily oral,296 ± 23 mg/dL
same,IL-6,[2]; 5 mg/kg daily oral,42 ± 40 pg/mL
same,Insulin,[2]; 5 mg/kg daily oral,7.4 ± 4.8 ng/mL
same,LDL-C,[2]; 5 mg/kg daily oral,9 ± 3 mg/dL
same,MCP-1,[2]; 5 mg/kg daily oral,86 ± 30 pg/mL
same,TNF-α,[2]; 5 mg/kg daily oral,3.7 ± 1.9 pg/mL
same,Cholesterol,[2]; 50 mg/kg daily oral,187 ± 44 mg/dL
same,Glucose,[2]; 50 mg/kg daily oral,282 ± 31 mg/dL
same,IL-6,[2]; 50 mg/kg daily oral,38 ± 32 pg/mL
same,Insulin,[2]; 50 mg/kg daily oral,6.8 ± 3.5 ng/mL
same,LDL-C,[2]; 50 mg/kg daily oral,8 ± 3 mg/dL
same,MCP-1,[2]; 50 mg/kg daily oral,53 ± 32 pg/mL
same,TNF-α,[2]; 50 mg/kg daily oral,1.5 ± 1.5 pg/mL
same,EC50,"human PPAR-α; EC50, PPAR-alpha, Table 4",> 100 µM
same,EC50,human PPAR-γ,> 100 µM
"CCCCCCCCCCCCCC(C)C(=O)O (stereo not drawn) [2-methyl-C15:0, 2-methylpentadecanoic acid]",CD40,[1],lower
same,ICAM-1,[1],lower
same,IL-1α,[1],lower
same,IL-8,[1],lower
same,IP-10,[1],lower
same,IP-18,[1],lower
same,MCP-1,[1],lower
same,MIG,[1],lower
same,MMP-1,[1],lower
same,MMP-3,[1],lower
same,MMP-9,[1],lower
same,PAI-1,[1],lower
same,VCAM-1,[1],lower
same,eotaxin-3,[1],lower
same,keratin 8/18,[1],lower
same,secreted IgG,[1],lower
same,Cmin,[3]; 5 mg/kg single oral dose,660 ng/mL
same,Tlast,[3]; 5 mg/kg single oral dose,24 h
same,Cmin,[3]; 35 mg/kg single oral dose,3790 ng/mL
same,Tlast,[3]; 35 mg/kg single oral dose,24 h
same,AUC(0-t),"[3]; rat, 5 mg/kg single oral dose",28.4 µg·h/mL
same,Cmax,"[3]; rat, 5 mg/kg single oral dose, deuterated form",3590 ng/mL
same,AUC(0-t),"[3]; rat, 35 mg/kg single oral dose",182 µg·h/mL
same,bioavailability,"[3]; rat, 5 mg/kg, 5 mg/kg single oral dose, estimate using an AUC of 15 for a 1 mg/kg IV arm, read-out: % F",37.8%
same,bioavailability,"[3]; rat, 35 mg/kg, 35 mg/kg single oral dose, estimate using an AUC of 15 for a 1 mg/kg IV arm, read-out: % F",34.7%
same,bioavailability,"[3]; rat, 35 mg/kg, oral, rats, read-out: estimated plasma % F (bioavailability)",~35%
